In PubChem BioAssay (NCI) one finds GI50 and TGI data, which are given here for twelve molecules.

Some test systems named below: ACHN renal; HOP-92 NSCLC; OVCAR-4 ovarian; OVCAR-5 ovarian; SK-MEL-2 melanoma; SNB-75 CNS; SW-620 colon.
Common to all, as to assay: inhibition of tumour cell growth, NCI panel, 48 h

“And” between values parts separate entries of the source, which are not always exact repeats. Identical values can stand only once.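 A five-concentration, 48-hour dose response in 96-well plates underlies each endpoint, interpolated linearly between surrounding concentrations. GI50 marks 50% less growth. TGI marks complete inhibition of growth.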

Consider `O=c1oc2ccc(Br)cc2c(=O)n1-c1ccc(F)cc1F`, for which the GI50 with ACHN renal is 2.44 µM; with HOP-92 NSCLC it was 0.425 µM; with OVCAR-4 ovarian, 1.65 µM; in the assay with OVCAR-5 ovarian, 3.79 µM; in the assay with SK-MEL-2 melanoma, 2.12 µM; with SNB-75 CNS, 1.02 µM. In the assay on SW-620 colon, the GI50 was 2.96 µM. Further, the TGI is 7.99 µM in the assay with ACHN renal; 4.74 µM in the assay with HOP-92 NSCLC; 8.45 µM in the assay with OVCAR-4 ovarian; greater than 100 µM with OVCAR-5 ovarian; 6.13 µM with SK-MEL-2 melanoma; 3.98 µM with SNB-75 CNS. Besides, in the assay with SW-620 colon, the TGI was 16.7 µM.

With `O=C1CSC(c2ccc(-c3nc4ccccc4s3)cc2)=N1`, the GI50 was 55.6 µM in the assay with ACHN renal; greater than 100 µM with HOP-92 NSCLC; 41.1 µM in the assay on OVCAR-4 ovarian; 26.3 µM with OVCAR-5 ovarian; 40.9 µM in the assay with SK-MEL-2 melanoma; greater than 100 µM in the assay on SNB-75 CNS. Also, in the assay with SW-620 colon, the GI50 is 50.5 µM. For the same molecule, the TGI in the assay on ACHN renal, in the assay on HOP-92 NSCLC, in the assay on OVCAR-4 ovarian, in the assay on OVCAR-5 ovarian, in the assay with SK-MEL-2 melanoma and with SNB-75 CNS was greater than 100 µM in each case. This molecule had a TGI with SW-620 colon greater than 100 µM.

Turning to `CCC(=O)Nc1ccc(N=NN(C)C)cc1`, the TGI in the assay on ACHN renal was greater than 100 µM; in the assay with HOP-92 NSCLC it was 90.2 µM; with OVCAR-4 ovarian, greater than 100 µM; in the assay on OVCAR-5 ovarian, greater than 100 µM; in the assay on SK-MEL-2 melanoma it was greater than 100 µM; in the assay on SNB-75 CNS, greater than 100 µM. This molecule also showed a TGI in the assay with SW-620 colon greater than 100 µM.

On to `CCCCCCCCCCCCOC1C(C(CC(=O)NCCN2CCCC2)NS(=O)(=O)c2cc(Cl)cc(Cl)c2)OC2OC(C)(C)OC21` (stereo not given), for which the GI50 was 1.9 µM in the assay on ACHN renal; 1.49 µM in the assay on HOP-92 NSCLC; 2 µM and 1.7 µM with OVCAR-4 ovarian; 2.17 µM with OVCAR-5 ovarian; 2.63 µM with SK-MEL-2 melanoma; 1.9 µM and 1.42 µM with SNB-75 CNS. Besides, the GI50 in the assay with SW-620 colon was 1.98 µM. Also, the TGI in the assay on ACHN renal was 3.37 µM; in the assay with HOP-92 NSCLC, 3 µM; in the assay on OVCAR-4 ovarian, 3.7 µM and 3.51 µM; in the assay on OVCAR-5 ovarian it was 4.34 µM; in the assay on SK-MEL-2 melanoma, 4.95 µM; in the assay with SNB-75 CNS, 3.56 µM and 2.86 µM. The molecule further came in with a TGI with SW-620 colon of 3.63 µM.

As for `Cc1ccc(Nc2nnc(-c3ccc4c(c3)OCO4)o2)c(C)c1`, the TGI in the assay on ACHN renal, with HOP-92 NSCLC, in the assay with OVCAR-4 ovarian, in the assay with OVCAR-5 ovarian, with SK-MEL-2 melanoma and in the assay with SNB-75 CNS was greater than 100 µM in each case. This molecule displayed a TGI in the assay on SW-620 colon greater than 100 µM.

As to `COc1ccc2c(Oc3ccc(NC(=O)c4c(C)n(CC(C)(C)O)n(-c5ccccc5)c4=O)nc3)ccnc2c1`, the GI50 is 5.02 µM in the assay on ACHN renal; 1.79 µM with HOP-92 NSCLC; 10.7 µM in the assay on OVCAR-4 ovarian; 37.8 µM with OVCAR-5 ovarian; 13.3 µM in the assay on SK-MEL-2 melanoma; 5.53 µM in the assay on SNB-75 CNS. Also, in the assay on SW-620 colon, the GI50 is 34.2 µM. Also, the TGI was greater than 100 µM in the assay with ACHN renal; 16.7 µM in the assay with HOP-92 NSCLC; greater than 90 µM in the assay with OVCAR-4 ovarian; greater than 89.6 µM in the assay on OVCAR-5 ovarian; 49.4 µM with SK-MEL-2 melanoma; 71.1 µM in the assay on SNB-75 CNS. This molecule also displayed a TGI with SW-620 colon greater than 100 µM.

On to `O=c1[nH]c(=O)n([C@H]2CCCO2)cc1F`, for which the GI50 in the assay with ACHN renal is 2600 µM; with OVCAR-5 ovarian, 2660 µM; with SK-MEL-2 melanoma, 1950 µM; in the assay on SNB-75 CNS it was greater than 5000 µM; in the assay with SW-620 colon, 1430 µM. Further, the TGI in the assay on ACHN renal is greater than 5000 µM; in the assay with HOP-92 NSCLC it was greater than 5000 µM; with OVCAR-4 ovarian it was greater than 5000 µM; in the assay with OVCAR-5 ovarian, greater than 5000 µM; with SK-MEL-2 melanoma it was greater than 5000 µM; in the assay with SNB-75 CNS it was 826 µM and > 5000 µM. The molecule further yielded a TGI in the assay with SW-620 colon greater than 5000 µM.

As to `O=C(NO)c1ccc(CN(c2cnccn2)c2cnccn2)cc1`, the GI50 in the assay on ACHN renal is 12.9 µM; in the assay with HOP-92 NSCLC, 16.4 µM; in the assay on OVCAR-4 ovarian, 16.1 µM; in the assay with OVCAR-5 ovarian, 14.7 µM; in the assay on SK-MEL-2 melanoma, 12.2 µM; in the assay on SNB-75 CNS, 14.6 µM. Further, the GI50 with SW-620 colon is 12.5 µM. The TGI in the assay on ACHN renal is 27.4 µM; in the assay on HOP-92 NSCLC, 35.1 µM; in the assay on OVCAR-4 ovarian, 97.7 µM; with OVCAR-5 ovarian, 52.6 µM; in the assay with SK-MEL-2 melanoma, 27 µM; in the assay with SNB-75 CNS, 38.7 µM. This molecule yielded a TGI in the assay with SW-620 colon of 33.7 µM.

As for `C=C1CC[C@@H](C(C)C)C[C@@H]2[C@H]([C@H](O)C[C@]2(C)O)[C@@]2(C)CC[C@@H]1O2`, the GI50 with ACHN renal is 16.5 µM; in the assay on HOP-92 NSCLC, 6.84 µM; with OVCAR-4 ovarian, 14.8 µM; in the assay on OVCAR-5 ovarian, 13.2 µM; in the assay with SK-MEL-2 melanoma, 23.2 µM; in the assay on SNB-75 CNS it was 17 µM. Also, in the assay with SW-620 colon, the GI50 is 20.6 µM. Besides, the TGI in the assay with ACHN renal was found to be 30 µM; with HOP-92 NSCLC, 20.7 µM; in the assay on OVCAR-4 ovarian, 28 µM; in the assay on OVCAR-5 ovarian, 26 µM; in the assay with SK-MEL-2 melanoma it was 50.6 µM; with SNB-75 CNS, 38.9 µM. Moreover, the TGI in the assay on SW-620 colon came out at 39.9 µM.

In the case of `O=C(N/N=C/c1c(Cl)cccc1Cl)c1ccc(C(F)(F)F)nc1Nc1cccc(C(F)(F)F)c1`, the GI50 in the assay with ACHN renal is 1.26 µM; with HOP-92 NSCLC, 0.293 µM; with OVCAR-4 ovarian, 0.466 µM; with OVCAR-5 ovarian, 4.06 µM; in the assay with SK-MEL-2 melanoma, 1.87 µM; with SNB-75 CNS, 2.46 µM. In the assay with SW-620 colon, the GI50 is 0.458 µM. For the same molecule, the TGI in the assay with ACHN renal is 11.3 µM; in the assay on HOP-92 NSCLC, 3 µM; in the assay on OVCAR-4 ovarian, greater than 100 µM; in the assay on OVCAR-5 ovarian, greater than 30.2 µM; in the assay on SK-MEL-2 melanoma, 8.19 µM; with SNB-75 CNS, 54.6 µM. In the assay with SW-620 colon, this molecule gave a TGI greater than 51.1 µM.

With `C[C@]12CC[C@@H]3c4ccc(O)c([N+](=O)[O-])c4CC[C@H]3[C@@H]1CC[C@@H]2NS(=O)(=O)c1cccc(Br)c1`, the GI50 in the assay with ACHN renal was 2.59 µM; in the assay with HOP-92 NSCLC, 1.53 µM; with OVCAR-4 ovarian, 1.47 µM; with OVCAR-5 ovarian, 2.16 µM; in the assay on SK-MEL-2 melanoma, 2.35 µM; in the assay on SNB-75 CNS, 1.19 µM. In the assay with SW-620 colon, the GI50 was 2.7 µM. Besides, the TGI was found to be 8.17 µM with ACHN renal; 5.03 µM in the assay on HOP-92 NSCLC; 2.94 µM in the assay with OVCAR-4 ovarian; 5.17 µM with OVCAR-5 ovarian; 5.34 µM with SK-MEL-2 melanoma; 2.7 µM in the assay on SNB-75 CNS. The TGI with SW-620 colon amounted to 9.42 µM.

As for `O=[N+]([O-])c1ccc(CSCc2ccc(Cl)cc2)cc1`, the TGI in the assay with ACHN renal, in the assay with HOP-92 NSCLC, with OVCAR-4 ovarian, with OVCAR-5 ovarian, in the assay on SK-MEL-2 melanoma and in the assay on SNB-75 CNS was greater than 100 µM throughout. This molecule also showed a TGI with SW-620 colon greater than 100 µM.
